Results from patent US5369104A, “Pyridazine compounds, their production and use” (Takeda Chemical Industries, Ltd., priority 1991, dated 1994).

System: PAF-induced bronchoconstriction
Assay: Action against PAF-induced bronchoconstriction in guinea pigs (Konzett-R6essler method)
Type: in vivo, guinea pig (male Hartley)
Conditions: guinea pig; 10 mg/Kg orally, 1 hour before PAF (1 μg/Kg, i.v.); recorded for 15 minutes
Protocol: (Action against PAF-induced bronchoconstriction in guinea pigs)
Male Hartley guinea pigs (body weight 500 g) were used. The bronchoconstriction reaction in the guinea pig which has intravenously received PAF (1 μg/kg) was measured by the Konzett-R6essler method. The trachea of the guinea pig with its back fixed was incised under anesthesia condition with urethane (intraperitoneal injection, 1.50 g/Kg) and connected with an artificial respirator via a cannula. The branch of the tracheal cannula was connected with a transducer (7020 type, Ugobasile). Air was sent to the trachea at the volume of 3-7 ml/stroke, at the stroke of 70 strokes/min. at load pressure of 10cm H2 O to lung and overflowed air volume was recorded with Rectegraph (Recte-Hori-8s, Sanei Sokuki) via the transducer. After the guinea pig was treated with galamine (1 mg/Kg, i.v.), PAF (1 μg/Kg) dissolved in a physiological saline solution was administered to the guinea pig via a jugular venous cannula and the bronchoconstriction reaction induced thereby was recorded for 15 minutes. The drug (10 mg/Kg) suspended in a 5% gum arabic solution was administered orally 1 hour before the injection of PAF.
Action against PAF-induced bronchoconstriction of guinea pigs

## Cc1cc2nccn2nc1CCC(C)(C)CCS(N)(=O)=O [Example 4, 6-(3,3-dimethyl-5-sulfamoyl-1-pentyl)-7-methylimidazo[1,2-b]pyridazine]
  Inhibition (%) of PAF-induced bronchoconstriction: 86%
